# Results from patent publication US20220409587A1, “METHODS OF TREATING HIV-1 INFECTION” (BIOTRON LIMITED, priority 2019, published 2022).
# Several values for one entry are separate records, joined by “and”; a condition that tells them apart may be missing. Equal entries are not always repeated. Entries after “also recorded” stand apart in the source; their conditions may differ.
# Assays:
# [1] = tested on: CD28 on CD4^+ T cells infected with HIV-1 NL4-3; assay: Plasma membrane CD28 expression on HIV-1 NL4-3 infected CD4+ T cells, flow cytometry; type: cell-based, human; conditions: 3 μM BIT225, WT HIV-1 NL4-3 infected cells, up to 72 h; dependent on Vpu expression
# Protocol: (§1) Method of virus stock generation is as described by Bobardt et al., PNAS, 2008; 105(14):5525-5530. Briefly, 293T cells were transfected with proviral plasmid (9 μg) and vesicular stomatitis virus G (VSV-G) envelope plasmid (1 μg). At day 2, VSV-G pseudotyped viruses (5 μg of p24) were harvested and used to acutely infect Jurkat cells (2×10^6 cells). Two days after infection, viruses were harvested, and p24 content was measured by ELISA (PerkinElmer). Viral infections were conducted in triplicate with 10 or 100 ng of p24 derived from transfected 293T cells. The following proviral constructs were used: wild-type HIV-1 pNL4.3 […] tropic[WT], pNL4.3 ANef, pNL4.3 AVpu, pNL4.3 ANefAVpu, and HIV-1 pBaL-1 CCR5(R5) tropic[WT].
# (§2) CD4^+ T cell isolation as previously described by Geijtenbeek et al., Cell, 2000, 100:587-597. Human PBMC were purified from fresh blood by banding on Ficoll-Hypaque (30 min, 800 g, 25° C.; Amersham Biosciences). Primary human CD4^+ T cells were purified from PBMC by positive selection with anti-CD4 Dynabeads and subsequent release using Detachabead (Dynal Biotech). […]
# (§3) Cells were treated with 3 μM BIT225 or DMSO control, and expression of CD28, CCR7, CD80 and CD86 measured by flow cytometry at 24, 48 and 72 hour time points. […]
# IFN-γ = assay: Phase 2 study: plasma Th17 related cytokines (MSD U-Plex), IFN-γ; type: in vivo, human
# Protocol: (§4) A Phase 2, multi-centre, randomized, placebo-controlled, double-blind study of BIT225 in combination with ART (Atripla—efavirenz/emtricitabine/tenofovir DF) was undertaken in patients with HIV-1 infection that were treatment-naive. Patients were randomized into two groups on a 2:1 basis, with one group receiving BIT225 (100 mg QD; 6 patients: placebo; 3 patients), and one group receiving BIT225 (200 mg QD, 18 patients: placebo; 9 patients), with a total of 36 patients enrolled in the trial. The 100 mg BIT225 group was primarily included for detailed PK analyses due to limitations on the quantity of blood that could be drawn at time points coinciding with analyses of viral load decay, which were limited to the 200 mg cohort. All subjects received the standard dose of ART in addition to 12 weeks BIT225 or placebo study treatment. […]
# (§5) Th17 cells regulate other immune cells, specifically neutrophils and macrophages, by secreting a variety of cytokines in response to pathogens. Plasma samples were analysed to determine the level of the Th17 related cytokines (IL-21, IFN-γ, IL-1p, IL-6, IL-10, IL-17A, IL-17E/IL-25, IL-17F, IL-22, and TNF-α) during the 12 week treatment period using electro-chemiluminescence MSD U-Plex Biomarker Group Th17 (Human Combo 2) Human Multiplex Assay (MesoScaleDiscovery, MD, USA).
# IL-6 = assay: Phase 2 study: plasma Th17 related cytokines (MSD U-Plex), IL-6; type: in vivo, human
# Protocol: as §4, §5
# [2] = Phase 2 study: pharmacokinetics (plasma, LC/MS/MS); type: in vivo, human
# Protocol: (§6) A Phase 2, multi-centre, randomized, placebo-controlled, double-blind study of BIT225 in combination with ART (Atripla—efavirenz/emtricitabine/tenofovir DF) was undertaken in patients with HIV-1 infection that were treatment-naive. Patients were randomized into two groups on a 2:1 basis, with one group receiving BIT225 (100 mg QD; 6 patients: placebo; 3 patients), and one group receiving BIT225 (200 mg QD, 18 patients: placebo; 9 patients), with a total of 36 patients enrolled in the trial. The 100 mg BIT225 group was primarily included for detailed PK analyses due to limitations on the quantity of blood that could be drawn at time points coinciding with analyses of viral load decay, which were limited to the 200 mg cohort. All subjects received the standard dose of ART in addition to 12 weeks BIT225 or placebo study treatment. At the conclusion of the trial, patients remained on ART as per standard treatment protocols. HIV-1-infected subjects, males and females, aged 18 to 65 years inclusive, who were naive to ART were recruited. Individuals had HIV-1 RNA>5,000 copies/mL and CD4^+ T cell count>100 cells/mm^3.
# There were two treatment cohorts. The first cohort received 100 mg capsule of BIT225 or placebo QD with ART for 12 weeks. Cohort 2 were given two 100 mg capsules BIT225 (200 mg BIT225) or placebo QD with ART. ART was 1 fixed dose combination tablet of Atripla. […]
# [3] = tested on: CD80 on MDM infected with HIV-1 NL4-3; assay: Plasma membrane CD80 expression on HIV-1 NL4-3 infected MDM, flow cytometry; type: cell-based, human
# Protocol: as §1
# (§7) Blood-derived CD4^+ T lymphocytes and MDM were isolated as described in Saphire et al., J Virol 2001, 75:9187-9200. CD4^+ T cells and monocytes were extracted from the blood of three donors that were CCR5-Delta32 negative. […]
# as §3
# NK cells = assay: Phase 2 study: NK cell numbers by flow cytometry; type: in vivo, human
# Protocol: as §6
# (§8) There were two treatment cohorts. The first cohort received 100 mg capsule of BIT225 or placebo QD with ART for 12 weeks. Cohort 2 were given two 100 mg capsules BIT225 (200 mg BIT225) or placebo QD with ART. ART was 1 fixed dose combination tablet of Atripla.
# (§9) Analyses for cell populations (T cells and NK cells) were performed in real time by flow cytometry (CD4^+, CD8^+, CD38^+, and HLA-DR^+ for T cells, and CD16^+, CD45^+ and CD56^+ for NK cells). ELISA assays were run for sCD163 and Th17 related cytokines. Immune activation markers measured by flow cytometry were performed in real time alongside CD4^+, CD8^+ and CD14^+ enumeration at HIV-NAT laboratory, Bangkok Thailand.
# TNF-α = assay: Phase 2 study: plasma Th17 related cytokines (MSD U-Plex), TNF-α; type: in vivo, human; conditions: BIT225 cohort vs placebo (data not shown)
# Protocol: as §4, §5
# IL-17F = assay: Phase 2 study: plasma Th17 related cytokines (MSD U-Plex), IL-17F; type: in vivo, human; conditions: BIT225 cohort vs placebo (data not shown)
# Protocol: as §4, §5
# [4] = tested on: CCR7 on CD4^+ T cells infected with HIV-1 NL4-3; assay: Plasma membrane CCR7 expression on HIV-1 NL4-3 infected CD4+ T cells, flow cytometry; type: cell-based, human
# Protocol: as §1, §2, §3
# [5] = Phase 2 study: safety and tolerability; type: in vivo, human
# Protocol: as §6, §8
# The safety of the experimental treatments was assessed by monitoring adverse events, vital signs, ECG parameters, clinical laboratory tests (haematology, clinical chemistry, coagulation and urinalysis) and physical examinations.
# IL-1 B = assay: Phase 2 study: plasma Th17 related cytokines (MSD U-Plex), IL-1 B; type: in vivo, human; conditions: BIT225 cohort vs placebo (data not shown)
# Protocol: as §4, §5
# IL-10 = assay: Phase 2 study: plasma Th17 related cytokines (MSD U-Plex), IL-10; type: in vivo, human; conditions: BIT225 cohort vs placebo (data not shown)
# Protocol: as §4, §5
# [6] = tested on: CD86 on MDM infected with HIV-1 NL4-3; assay: Plasma membrane CD86 expression on HIV-1 NL4-3 infected MDM, flow cytometry; type: cell-based, human
# Protocol: as §1, §7, §3
# [7] = tested on: activated CD8^+ cell (CD8^+/HLA-DR^+/CD38^+); assay: Phase 2 study: activated CD8+ T cell numbers by flow cytometry; type: in vivo, human; conditions: 200 mg BIT225 QD + ART vs placebo + ART, 12 weeks; ±29 SEM; P<0.01
# Protocol: as §6, with “Individuals had HIV-1 RNA>5,000 copies/mL and CD4^+ T cell count>100 cells/mm^3.” left out
# as §9, with “ELISA assays were run for sCD163 and Th17 related cytokines.” left out
# [8] = tested on: activated CD4^+ T cells (CD4^+/HLA-DR^+/CD38^+); assay: Phase 2 study: activated CD4+ T cell numbers by flow cytometry; type: in vivo, human
# Protocol: as §6, with “Individuals had HIV-1 RNA>5,000 copies/mL and CD4^+ T cell count>100 cells/mm^3.” left out
# as §9, with “ELISA assays were run for sCD163 and Th17 related cytokines.” left out
# IL-21 = assay: Phase 2 study: plasma Th17 related cytokines (MSD U-Plex), IL-21; type: in vivo, human
# Protocol: as §4, §5
# HIV-1 = assay: Phase 2 study: plasma HIV-1 viral load decay (Roche COBAS TaqMan HIV-1); type: in vivo, human; conditions: 200 mg BIT225 QD + ART vs placebo QD + ART, 12 weeks, treatment-naive HIV-1 patients
# Protocol: as §6
# (§10) There were two treatment cohorts. The first cohort received 100 mg capsule of BIT225 or placebo QD with ART for 12 weeks. […]
# HIV-1 plasma viral load was determined in real time by Roche COBAS TaqMan HIV-1 currently approved version (Roche Diagnostics).
# soluble CD163 (sCD163) = assay: Phase 2 study: plasma sCD163 by Macro163 ELISA; type: in vivo, human
# Protocol: as §6, §10
# The macrophage and monocyte activation marker sCD163 was measured in plasma by Macro163™ ELISA (IQ Products, Groningen, The Netherlands).
# [9] = 3 μM BIT225, ΔNefΔVpu HIV-1 NL4-3 double mutant
structure (smiles),measurement,setting,value
"Cn1cc(-c2cccc3cc(C(=O)NC(=N)N)ccc23)cn1 [BIT225, N-carbamimidoyl-5-(1-methylpyrazol-4-yl)naphthalene-2-carboxamide]",CD28 expression on CD4+ T cells,[1],partial restoration
same,Subjects with IFN-γ transient spike,IFN-γ; BIT225 cohort (data not shown),16 of 18
same,IFN-γ cohort mean response,IFN-γ; BIT225 cohort + ART,transient spike at Day 14
same,Subjects with transient spike of plasma IL-6 in first 3 weeks,IL-6; BIT225 + ART,8 of 18
same,"IL-6 response after 3 weeks, change from baseline (Log10)",IL-6; BIT225 cohort vs placebo (data not shown),remained higher than placebo
same,Effect of BIT225 on the PK characteristics of Atripla (ART),[2]; co-administration (results not shown),did not significantly affect; also recorded: no significant impact
same,Plasma exposures,"[2]; intensive PK sampling, 100 mg cohort",within the expected timeframes and concentration ranges
same,Plasma membrane CD80 expression on MDM,"[3]; 3 μM BIT225, WT or ΔNef virus infected cells (express Vpu)",partial restoration
same,Plasma membrane CD80 expression on MDM,[3]; [9],no observable effect
same,"Estimated average difference in NK cells, BIT225 cohort versus placebo (two-factor linear model)","NK cells; 200 mg BIT225 QD + ART vs placebo + ART, 12 weeks, SEM, P<0.01",71 cells/ml and 71±23 cells/ml
same,Time to peak of NK cell numbers after commencing treatment,NK cells; BIT225 + ART,24 to 48 h
same,NK cell numbers during treatment versus placebo,"NK cells; BIT225 + ART, 12-week treatment",remained higher
same,TNF-α versus placebo,TNF-α,no statistical differences
same,IL-17F production versus placebo,IL-17F,no difference between cohorts
same,CCR7 expression on CD4+ T cells,"[4]; 3 μM BIT225, WT HIV-1 NL4-3-infected cells, dependent on Vpu expression",partial restoration
same,CCR7 downregulation by Nef expression alone,"[4]; 3 μM BIT225, ΔVpu virus",not affected
same,Tolerability / safety,"[5]; 100 and 200 mg QD cohorts with ART, 12 weeks",safe and well tolerated
same,"QTcB in one discontinued subject (mild QTcB prolongation, Day 17), considered not related to BIT225 or Atripla",[5]; BIT225 100 mg cohort,> 480 ms
same,Subjects who discontinued the study early due to AEs,[5]; BIT225 100 mg cohort,Two
same,Serious AEs or deaths,[5]; all cohorts,no serious AEs (SAEs) or deaths
same,IL-1 B production versus placebo,IL-1 B,no statistical differences
same,IL-10 levels versus placebo over 12 weeks,IL-10,not statistically significant
same,Plasma membrane CD86 expression on MDM,"[6]; 3 μM BIT225, WT or ΔNef virus infected cells",partial restoration
same,Plasma membrane CD86 expression on MDM,[6]; [9],no observable effect
same,"Estimated average difference in activated CD8+ T cells, BIT225 cohort versus placebo (two-factor linear model)",[7],85 cells/ml
same,Time activated CD4+ T cells remained elevated,[8]; 100 mg BIT225 QD + ART (data not shown),approximately 50 days
same,Change from baseline of activated CD4+ T cell numbers compared to placebo,"[8]; 200 mg BIT225 QD + ART vs placebo + ART, 12 weeks",sustained delay in decline; also recorded: statistically significant delayed reduction
same,Plasma IL-21 versus placebo over the first 3 weeks (ANOVA),"IL-21; 200 mg BIT225 QD + ART vs placebo + ART, P=0.02",statistically significant increase; also recorded: statistically significantly increased
same,Time of peak plasma IL-21,IL-21; BIT225 + ART,3 week
same,Plasma HIV-1 RNA decline versus placebo,HIV-1,declined in a similar manner
same,Linear model estimate β1 of larger overall decrease in sCD163 for BIT225 versus placebo,"soluble CD163 (sCD163); 200 mg BIT225 QD + ART vs placebo + ART, 12 weeks, ±SE, P=0.036",208 ± 99 ng/mL
same,sCD163 over 12 weeks compared to ART alone,soluble CD163 (sCD163); BIT225 + ART vs ART + placebo,significantly reduced; also recorded: statistically significant decline
